Results on 4 molecules are retold here after patent publication US10582715B2, “Powder flavour composition” (Givaudan S.A., priority 2012, dated 2020).

The nature of assay [1]: Tasting of snack product (fried potato base, 35% fat, cheese seasoning) with added compound. The source says: A snack product consisting of a fried potato base, containing 35% fat and flavored with cheese seasoning containing salt, MSG, dairy, organic acids, sugars, and a flavour formulation.
Assay [2] can be described thus: Tasting of air expanded base (3% fat, cheese seasoning) with added compound. The source says: An air expanded base (Rice, wheat, Tapioca, potato, salt, sugar, modified starch), containing 3% fat and flavored with cheese seasoning containing salt, MSG, dairy, organic acids, sugars and flavor.
The nature of assay [3]: Test in 3 in 1 Coffee beverage, evaluated by expert tasters. The settings on record: sucrose 13.2%, creamer 2.1% fat, compound at 1 ppm, base: coffee, sweet, mild dairy. Here is the method: In a 3 in 1 Coffee beverage from Nestle (market product) sweetened with sucrose 13.2% and containing creamer (2.1% fat) C18:2-gaba was added.
Samples were evaluated by expert tasters. Tasters were asked to describe the samples focusing on authentic taste, mouthfeel, fullness, salivation, sweetness, juiciness, richness, long lastingness and fattiness.
Base is 3-in-1 Coffee Beverage (Market Product) Sweetened with Sucrose and Containing Creamer with Fat
Base: coffee, sweet, mild dairy

A short description of assay [4]: Test on orange flavoured Tang powdered soft drink, evaluated by expert tasters. Here is the method: In an orange flavoured Tang powdered soft drink (market product) sweetened with sucrose plus high intensity sweetener and containing citric acid, C18:2-gaba and C18:2-pro were tested.
All samples were evaluated by expert tasters. Tasters were asked to describe the samples focusing on authentic taste, mouthfeel & body, enhancement, richness, juiciness, long lastingness, salivation, sweetness, masking off notes of high intensity sweetener
Base is Orange Flavoured Tang
Base: sweet, orange, licorice, and lingering high intensity sweetener offnotes, bitter, thin

Assay [5] can be described thus: Mango flavoured still beverage containing different levels of juice, evaluated by expert tasters. Here is the method:
In a Mango flavoured still beverage, sweetened with 8% sucrose and containing 0.1% citric acid and 1%, 4% and 6% clear mango juice flavoured with a proprietary Mango flavour @ 0.05% , C18:2-gaba and C18:2-Pro were added, as such (separate) and in combination.
All samples were evaluated by expert tasters. Tasters were asked to describe the samples focusing on authentic taste, juicy mouthfeel, enhancement, richness, juiciness, long lastingness, salivation, sweetness.
In a Mango flavoured still beverage, sweetened with 8% sucrose & containing 0.1% citric acid and 1% clear mango juice flavoured with proprietary Mango flavour @ 0.05%, C18:2-gaba and C18:2-Pro were added, as such (separate) and in combination.
Base is water, 8% sucrose, 0.1% citric acid, 1% clear mango juice (very low juice %), flavoured with Mango flavor, dosed at 0.05%
Base: sweet, fruity, mango, thin
In a Mango flavoured still beverage, sweetened with 8% sucrose & containing 0.1% citric acid and 4% clear mango juice flavoured with Mango flavour @ 0.05% , C18:2-gaba and C18:2-Pro were added, as such (separate) and in combination.
Base is water, 8% sucrose, 0.1% citric acid, 4% clear mango juice (30% reduced juice), flavoured with Mango flavor, dosed at 0.05%
Base: sweet, fruity, mango, some low mouthfeel
In a Mango-flavoured still beverage, sweetened with 8% sucrose & containing 0.1% citric acid and 6% clear mango juice flavoured with Mango flavour @ 0.05%, C18:2-gaba and C18:2-Pro were added, as such (separate) and in combination.
Base is water, 8% sucrose, 0.1% citric acid, 6% clear mango juice (full juice), flavoured with Mango flavor, dosed at 0.05%.
Base: Sweet, fruity mango, full mouthfeel

With `CCCCCCCC/C=C\CCCCCCCC(=O)NC1(C(=O)O)CC1` [C18:1-ACCA, N-oleoyl 1-amino-cyclopropyl carboxylic acid], the tasting results in assay [1] (compound at 0.5 ppm) was “Increased salty”; in assay [1] (compound at 1 ppm) it was “Increased Umami, salty”; in assay [2] (compound at 0.5 ppm), “Increased salty”; in assay [2] (compound at 1 ppm), “Increased Umami, salty”.

For the molecule `CCCCCCCC/C=C\CCCCCCCC(=O)N[C@@H](CCSC)C(=O)O` [C18:1 met], the tasting results was “Salty, aged cheese, succulent” in assay [1] (compound at 0.25 ppm); “Increased cheese, creamy, salty and succulent” in assay [1] (compound at 0.5 ppm).

On to `CCCCC/C=C\C/C=C\CCCCCCCC(=O)NCCCC(=O)O` [C18:2-gaba], for which the tasting results was “increased dairy, cheesy” in assay [1] (compound at 0.5 ppm); “Fatty full, cheesy, cheese crust, long lasting” in assay [1] (compound at 1 ppm); “Increased dairy, cheese” in assay [2] (compound at 0.5 ppm); “Fatty full, cheesy, cheese crust, long lasting, cover base” in assay [2] (compound at 1 ppm). Moreover, the “taste description by expert tasters” value was “very nice mouthfeel effect, creamy as if coffee creamer is added, more sweet” in assay [3]; “enhances sweet juicy orange notes, enhanced mouthfeel” in assay [4] (compound at 0.5 ppm); “fatty skin-like, very juicy, authentic mango, much more mouthfeel, long lasting mango taste, mouthfeel is close to the full juice product” in assay [5] (1% clear mango juice, compound at 1 ppm); “fatty skin-like, very juicy, authentic mango, long lasting mango taste, more mouthfeel than the full juice product” in assay [5] (4% clear mango juice, compound at 1 ppm); “fatty skin-like, very thick juicy, authentic mango, long lasting mango taste, rich” in assay [5] (6% clear mango juice (full juice), compound at 1 ppm). For the same molecule, the “masking off notes of high intensity sweetener” value in assay [4] (compound at 0.5 ppm) is recorded as “the off-notes of the high intensity sweetener were suppressed”.

With `CCCCC/C=C\C/C=C\CCCCCCCC(=O)N1CCC[C@H]1C(=O)O` [C18:2-Pro], in assay [4] (compound at 1 ppm), the “masking off notes of high intensity sweetener” value is “the off-notes of the high intensity sweetener were suppressed”. For the same molecule, the “taste description by expert tasters” value in assay [4] (compound at 1 ppm) was “very fresh, enhances sweet juicy orange notes, characteristic of authentic fresh orange fruit”; in assay [5] (1% clear mango juice, compound at 0.5 ppm), “more sweet, sugar-like, very juicy and long lasting sweet, salivating”; in assay [5] (4% clear mango juice, compound at 0.5 ppm), “more sweet, sugar-like, very juicy and long lasting sweet, salivating”; in assay [5] (6% clear mango juice (full juice), compound at 0.5 ppm), “more sweet, sugar-like, very juicy and long lasting sweet, salivating, syrupy”.
